Measured values reported in US6218431A, “Substituted biphenyls” (Bayer Corporation, priority 1997, dated 2001).

Biological target: T1, glucagon receptor (Homo sapiens, UniProt P47871)
T1 construct: expressed in transfected cells; host or cells: Chinese Hamster Ovary cells (CHO-HGR), membranes
Experiment: glucagon receptor binding assay (125I-glucagon, CHO-HGR membranes)
Settings: for IC50: 125I-glucagon, 60 min at room temperature, read-out: IC50
Protocol: The affinity for the glucagon receptor of compounds of the present invention is determined by the glucagon receptor binding assay. Membranes were prepared from Chinese Hamster Ovary cells expressing the glucagon receptor (CHO-HGR) by scraping the cells into hypotonic lysis buffer (10 mM Tris, pH 7.4, 2 mM EDTA, 5 mM MgCl2 and 1 mM PMSF) and subjecting the material to Polytron homogenization. Nuclei were removed by a 15-min 800×g centrifugation step conducted at 4° C. Membranes containing the receptor were collected by centrifugation at 15,000×gfor 15 min at 4° C. The membranes were washed once in lysis buffer and suspended in 0.25 M sucrose, 10 mM Tris, 5 mM EDTA, pH 7.4. The membranes were used in ligand binding studies as reported (Yoo-Warren, H., Willse, A. G., Hancock, N., Hull, J., McCaleb, M., and Livingston, J. Regulation of Rat Glucagon Receptor Expression. Biochem. Biophysical Res. Commun. 1994, 205, 347-353). In brief, 10 ug of membrane protein was incubated in 130 μl of binding buffer that consisted of 20 mM Tris, […], 1 mM EDTA, 1 mg/ml BSA, and 1 mg/ml bacitracin. The membrane suspension was placed in each well of a 96-well filtration plate (glass fiber type C, Millipore). […] Following the addition of test compound, 50 μl of ^125 I-glucagon (9 fmol) (NEN) was added to each well. Control wells contained membranes, 0.5% DMSO (solvent for test compounds), radiolabeled glucagon without and with excess native glucagon (1 μM) to establish nonspecific binding. The plates were incubated for 60 min at room temperature, and then filtered on a Mllipore vacuum apparatus. Following a wash step with ice-cold PBS/0.1% BSA, the filters were punched into test tubes, and the membrane bound radioactivity was determined.

T1 sequence (P47871 26-477): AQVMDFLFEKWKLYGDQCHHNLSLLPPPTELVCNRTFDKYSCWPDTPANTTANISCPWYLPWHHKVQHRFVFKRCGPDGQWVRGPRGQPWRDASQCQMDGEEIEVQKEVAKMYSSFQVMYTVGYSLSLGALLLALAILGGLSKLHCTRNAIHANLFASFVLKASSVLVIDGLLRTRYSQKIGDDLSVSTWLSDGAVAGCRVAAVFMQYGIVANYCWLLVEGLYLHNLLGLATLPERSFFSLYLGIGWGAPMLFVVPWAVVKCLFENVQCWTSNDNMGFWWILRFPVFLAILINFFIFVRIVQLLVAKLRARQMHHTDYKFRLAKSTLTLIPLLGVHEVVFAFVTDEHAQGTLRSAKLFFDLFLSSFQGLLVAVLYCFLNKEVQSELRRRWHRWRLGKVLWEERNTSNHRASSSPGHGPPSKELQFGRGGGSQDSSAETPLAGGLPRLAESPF

IC50 [µM]	inhibition at 20 µM (20 μM, reported where 20 μM did not reduce glucagon binding by 50%) [%]	SMILES
0.7	–	CCCCC=Cc1c(C(C)C)nc(C(C)C)c(CO)c1-c1ccc(F)cc1 [Example 19, 2,6-Diisproyl-3-hyroxymethyl-4-(4-fluorophenyl)-5-(1-hexenyl)-pyridine]
1.3	–	CCC=Cc1c(C(C)C)nc(C(C)C)c(CO)c1-c1ccc(F)cc1 [Example 20, 2,6-Diisopropyl-3-hydroxymethyl-4-(4-fluorophenyl)-5-(l-butenyl)-pyridine]
0.8	–	CC=Cc1c(C(C)C)nc(C(C)C)c(CO)c1-c1ccc(F)cc1 [Example 21, 2,6-Diisopropyl-3-hydroxymethyl-4-(4-fluorophenyl)-5-(1-propenyl)-pyridine]
1.1	–	CCCCCC=Cc1c(C(C)C)nc(C(C)C)c(CO)c1-c1ccc(F)cc1 [Example 32, 2,6-Diisopropyl-3-hydroxymethyl-4-(4-fluorophenyl)-5-(1-heptenyl)-pyridine]
1.8	–	CCCCCCC=Cc1c(C(C)C)nc(C(C)C)c(CO)c1-c1ccc(F)cc1 [Example 33, 2,6-Diisopropyl-3-hydroxymethyl-4-(4-fluorophenyl)-5-(1-octenyl)-pyridine]
0.6	–	CC(C)c1nc(C(C)C)c(CO)c(-c2ccc(F)cc2)c1/C=C/c1ccccc1 [Example 34, 2,6-Diisopropyl-3hydroxymethyl-4-(4-fluorophenyl)-5-[2(E)-phenyl-ethenyl]pyridine]
0.75	–	CC(C)c1nc(C(C)C)c(CCc2ccccc2)c(-c2ccc(F)cc2)c1CO [Example 37, 2,6-Diisopropyl-3-hydroxymethyl-4-(4-fluorophenyl)-5-(2-phenylethyl)pyridine]
0.6	–	CC(C)c1nc(C(C)C)c(CO)c(-c2ccc(F)cc2)c1C=CCCc1ccccc1 [Example 38, 2,6-Diisopropyl-3-hydroxymethyl-4-(4-fluorophenyl)-5-(4phenyl-1-butenyl)pyridine]
1.3	–	CC(C)c1nc(C(C)C)c(CCCCc2ccccc2)c(-c2ccc(F)cc2)c1CO [Example 39]
0.75	–	Cc1ccccc1/C=C/c1c(C(C)C)nc(C(C)C)c(CO)c1-c1ccc(F)cc1 [Example 40, 2,6-Diisopropyl-3-hydroxymethyl-4-(4-fluorophenyl)-5-[2(E)-(2-methyl-phenyl)ethenyl]pyridine]
0.6	–	Cc1cccc(/C=C/c2c(C(C)C)nc(C(C)C)c(CO)c2-c2ccc(F)cc2)c1 [Example 41, 2,6-Diisopropyl-3-hydroxvmethyl-4-(4fluorophenyl)-5-[2(E)-(3-methyl-phenyl)ethenyl]pyridine]
1	–	Cc1cccc(CCc2c(C(C)C)nc(C(C)C)c(CO)c2-c2ccc(F)cc2)c1 [Example 44, 2,6-Diisopropyl-3-hydroxymethyl-4-(4-fluorophenyl)-5-[2-(3-methyl-phenyl)ethyl]pyridine]
1.5	–	CC(C)c1nc(C(C)C)c(CSc2ccccc2)c(-c2ccc(F)cc2)c1CO [Example 47, 2,6Diisopropyl-3-hydroxymethyl-4-(4fluorophenyl)-5[(phenylthio)-methyl]pyridine]

More lines, now with the values behind:

SMILES	IC50 [µM]	inhibition at 20 µM (20 μM, reported where 20 μM did not reduce glucagon binding by 50%) [%]
CCCCc1c(C(C)C)nc(C(C)C)c(CO)c1-c1ccccc1 [Example 18, 2,6-Diisopropyl-3-hydroxymethyl-4-phenyl-5-butylpyridine]	0.75	–
C=Cc1c(C(C)C)nc(C(C)C)c(CO)c1-c1ccc(F)cc1 [Example 22, 2,6Diisopropyl-3-hydroxymethyl-4-(4-fluorophenyl)-5-ethenylpyridine]	1.1	–
CCCCCCc1c(C(C)C)nc(C(C)C)c(CO)c1-c1ccc(F)cc1 [Example 23, 2,6-Diisopropyl-3-hydroxymethyl-4-(4-fluorophenyl)-5-hexylpyridine]	0.39	–
CCCCc1c(C(C)C)nc(C(C)C)c(CO)c1-c1ccc(F)cc1 [Example 24, 2,6-Diisopropyl-3-hydroxymethal-4-(4fluorophenyl)-5-butylpyridine]	0.75	–
CCCc1c(C(C)C)nc(C(C)C)c(CO)c1-c1ccc(F)cc1 [Example 25, 2,6-Diisopropyl-3-hydroxymethyl-4-(4-fluorophenyl)-5-propylpyridine]	0.4	–
CCc1c(C(C)C)nc(C(C)C)c(CO)c1-c1ccc(F)cc1 [Example 26, 2,6Diisopropyl-3-hydroxymethyl-4-(4-fluorophenyl)-5-ethylpyridine]	1	–
CC(C)C=Cc1c(C(C)C)nc(C(C)C)c(CO)c1-c1ccc(F)cc1 [Example 27, 2,6-Diisopropyl-3-hydroxymethyl-4-(4-fluorophenyl)-5-(3-methyl-1-butenyl)pyridine]	20	–
CC(C)CC=Cc1c(C(C)C)nc(C(C)C)c(CO)c1-c1ccc(F)cc1 [Example 28, 2,6Diisopropyl-3-hydroxymethyl-4-(4-fluorophenyl)-5-(4-methyl-1-pentenyl)pyridine]	1	–
CC(C)CCc1c(C(C)C)nc(C(C)C)c(CO)c1-c1ccc(F)cc1 [Example 29, 2,6-Diisopropyl-3-hydroxymethyl-4-(4-fluorophenyl)-5-(3-methylbutyl)pyridine]	1	–
CC(C)CCCc1c(C(C)C)nc(C(C)C)c(CO)c1-c1ccc(F)cc1 [Example 30, 2,6-Diisopropyl-3-hydroxymethyl-4-(4-fluorophenyl)-5-(4-methylpentyl)pyridine]	0.9	–
CC(C)c1nc(C(C)C)c(CO)c(-c2ccc(F)cc2)c1C=C1CCCC1 [Example 31, 2,6-Diisopropyl-3-hydroxymethyl-4-(4-flurorphenyl)-5-(cyclopentyl-idenemethylene)pyridine]	2.6	–
CCCCCCCc1c(C(C)C)nc(C(C)C)c(CO)c1-c1ccc(F)cc1 [Example 35, 2,6-Diisopropyl-3-hydroxymethyl-4-(4-fluorophenyl)-5-heptylpyridine]	0.7	–
CCCCCCCCc1c(C(C)C)nc(C(C)C)c(CO)c1-c1ccc(F)cc1 [Example 36, 2,6-Diisopropyl-3-hydroxymethyl-4-(4-fluorophenyl)-5-octylpyridine]	1.8	–
Cc1ccc(/C=C/c2c(C(C)C)nc(C(C)C)c(CO)c2-c2ccc(F)cc2)cc1 [Example 42, 2,6-Diisopropyl-3-hydroxymethyl-4-(4-fluorophenyl)-5-[2(E)-(4-methyl-phenyl)ethenyl]pyridine]	0.7	–
Cc1ccccc1CCc1c(C(C)C)nc(C(C)C)c(CO)c1-c1ccc(F)cc1 [Example 43, 2,6-Diisopropyl-3-hydroxymethyl-4-(4-fluorophenyl)-5-[2-(2-methyl-phenyl)ethyl]pyridine]	1.8	–
Cc1ccc(CCc2c(C(C)C)nc(C(C)C)c(CO)c2-c2ccc(F)cc2)cc1 [Example 45, 2,6-Diisopropyl-3-hydroxyl methyl-4-(4-fluorophenyl)-5-[2-(4-methyl-phenyl)ethyl]pyridine]	1.1	–
CC(C)c1nc(C(C)C)c(CCCC2OCCO2)c(-c2ccc(F)cc2)c1CO [Example 46]	9	–
CC(C)c1nc(C(C)C)c(CSc2cccc(C(F)(F)F)c2)c(-c2ccc(F)cc2)c1CO [Example 48, 2,6-Diisopropyl-3-hydroxymethyl-4-(4-fluorophenyl)-5-[((3-trifluoro-methyl)phenyl)thio]methylpyridine]	1.8	–
CC(C)c1nc(C(C)C)c(CSc2ccc(F)cc2)c(-c2ccc(F)cc2)c1CO [Example 49, 2,6-Diisopropyl-3-hydroxymethyl-4-(4-fluorophenyl)-5-[(4-fluoro-phenyl)thio]methylpyridine]	1.1	–
Cc1ccc(SCc2c(C(C)C)nc(C(C)C)c(CO)c2-c2ccc(F)cc2)cc1 [Example 50, 2,6-Diisopropyl-3-hydroxymethyl-4-(4-fluorophenyl)-5-[((4-methyl)-phenyl)thio]methylpyridine]	0.9	–
CC(C)c1nc(C(C)C)c(CSc2cccc3ccccc23)c(-c2ccc(F)cc2)c1CO [Example 51, 2,6-Diisopropyl-3-hydroxymethyl-4-(4-fluorophenyl)-5-(1-naphthylthio)-methylpyridine]	16	–
CC(C)c1nc(C(C)C)c(CSc2ccc3ccccc3c2)c(-c2ccc(F)cc2)c1CO [Example 52, 2,6Diisopropyl-3hydroxymethyl-4-(4-fluorophenyl)-5-(2-naphthyl-thio)methlpyridine]	20	–
CC(C)c1nc(C(C)C)c(CSc2c(F)c(F)cc(F)c2F)c(-c2ccc(F)cc2)c1CO [Example 53, 2,6-Diisopropyl-3-hydroxymethyl-4-(4-fluorophenyl)-5-[(2,3,5,6-tetra-fluorophenyl)thio]methylpyridine]	4.9	–
COc1cccc(SCc2c(C(C)C)nc(C(C)C)c(CO)c2-c2ccc(F)cc2)c1 [Example 54, 2,6-Diisopropyl-3-hydroxymethyl-4-(4-fluorophenyl)-5-[(3-methyoxy-phenyl)thio]methylpyridine]	1.8	–
CC(C)c1nc(C(C)C)c(CSc2ccc(O)cc2)c(-c2ccc(F)cc2)c1CO [Example 55, 2,6-Diisopropyl-3-hydroxymethyl-4-(4-fluorophenyl)-5-[(4-hydroxy-phenyl)thio]methylpyridine]	–	15.7
